{
  "source": "paper PMC6128854",
  "about": "(Scientific Reports, 2018)",
  "system": "high voltage-activated (HVA) calcium channel currents in rat DRG neurons",
  "assay_type": "cell-based",
  "data": [
    {"substance": "ω-agatoxin", "values": [
      {"measurement": "further inhibition of the residual Ba2+ currents", "result": 20, "unit": "%"}
    ]}
  ]
}
